Common to all, as to format: cell-based, human
In experiment [1] the test system is mda-6 (WAF1/CIP1/SDI1). Put plainly: Induction of mda-6 (WAF1/CIP1/SDI1) expression in HL-60 cells (Northern blotting, RT-PCR). The settings on record: CHX 10 μg/ml 1, 3, 6 or 10 h, without or with TPA 3 nM. On the procedure: HL-60 cells were originally provided by Dr. R. C. Gallo (National Cancer Institute, Bethesda, Md.) (Collins et al., 1978; Huberman & Callaham, 1979). HL-60 cells designated HL-525 were derived by cloning HL-60 cells after subculturing 102 times in the presence of increasing concentrations (up to 3 μM) of TPA at 5- to 8-day intervals (Homma et al., 1986; Mitchell et al., 1986). […] Prior to the experiments described in this study, the HL-525 cells were subcultured more than 20 times in the absence of TPA. Cells were grown in 100-mm tissue culture dishes in RPMI 1640 medium supplemented with 20% fetal bovine serum, penicillin (100 units/ml) and streptomycin (100 μg/ml) (Grand Island Biological Co., NY) at 37° C. in an atmosphere of 5% CO2 in air in a humidified incubator. The 1,25-(OH)2D3(Vit D3) and TPA were dissolved in a final concentration of 0.01% DMSO, and all-trans retinoic acid (RA) was dissolved in 0.1% DMSO in culture medium. […]
RNA was purified by centrifugation through a CsC1 cushion as described by Chirgwin et al. (1979). […] Following hybridization, the filters were washed and exposed for autoradiography (Reddy et al., 1991; Su et al., 1991; Jiang et al., 1992). mda-6 and GAPDH gene expression were also determined by reverse transcription-polymerase chain reaction (RT-PCR) as described (Adollahi et al. 1991; Lin et al., 1994). […]

Experiment [2] relates to mda-6 (WAF1/CIP1/SDI1). The settings on record: HL-525. Here is the method: (§1) HL-60 cells were originally provided by Dr. R. C. Gallo (National Cancer Institute, Bethesda, Md.) (Collins et al., 1978; Huberman & Callaham, 1979). HL-60 cells designated HL-525 were derived by cloning HL-60 cells after subculturing 102 times in the presence of increasing concentrations (up to 3 μM) of TPA at 5- to 8-day intervals (Homma et al., 1986; Mitchell et al., 1986). […] Prior to the experiments described in this study, the HL-525 cells were subcultured more than 20 times in the absence of TPA. Cells were grown in 100-mm tissue culture dishes in RPMI 1640 medium supplemented with 20% fetal bovine serum, penicillin (100 units/ml) and streptomycin (100 μg/ml) (Grand Island Biological Co., NY) at 37° C. in an atmosphere of 5% CO2 in air in a humidified incubator. The 1,25-(OH)2D3(Vit D3) and TPA were dissolved in a final concentration of 0.01% DMSO, and all-trans retinoic acid (RA) was dissolved in 0.1% DMSO in culture medium. […] Control cultures were treated with DMSO at a final concentration of 0.1% in culture medium. For experiments designed to test the effect of DMSO on HL-60 and HL-525 cells, DMSO was added to tissue culture medium at a final concentration of 1%. Stock solutions of CHX (10 mg/ml) were prepared in culture medium. CHX was added at a final concentration of 10 μg/ml. To examine a requirement for protein synthesis on mda-6 gene expression, HL-60 or HL-525 cells were seeded into 150 mm Petri dishes (5×10^5 cells/ml) in 30 ml of medium. CHX was added to a final concentration of 10 μg/ml 15 min prior to the addition of TPA to 3 nM. Cells were harvested at various times after addition of TPA for subsequent RNA isolation and analysis.
RNA was purified by centrifugation through a CsC1 cushion as described by Chirgwin et al. (1979). Ten μg of RNA was denatured with glyoxal/DMSO, electrophoresed on 1.0% agarose gels, transferred to nylon membranes, hybridized to a ^32P-labeled mda-6 probe (Jiang and Fisher, 1993) and then after stripping the membrane hybridized to a ^32P-labeled rat GAPDH probe (Fort et al., 1985), as described previously (Reddy et at., 1991; Su et al., 1991; Jiang et al., 1992). Following hybridization, the filters were washed and exposed for autoradiography (Reddy et al., 1991; Su et al., 1991; Jiang et al., 1992). mda-6 and GAPDH gene expression were also determined by reverse transcription-polymerase chain reaction (RT-PCR) as described (Adollahi et al. 1991; Lin et al., 1994). Total cytoplasmic RNA was treated with 0.5 units DNase (Boehringer-Mannheim Biochemicals)/μg RNA in 15% glycerol, 10 mM Tris, pH 7.5, 2.5 mM MgCl2, 0.1 mM EDTA, 80 mM KC1, 1 mM CaCl2 and 1 unit/ml RNasin (Promega) at 30° C. for 10 min. RNA was extracted with phenol-chloroform, precipitated with sodium acetate/ethanol and RNA pellets were resuspended in diethylpyrocarbonate-treated H2O. One μg of total RNA was reverse transcribed with 200 units of murine leukemia virus reverse transcriptase (Bethesda Research Laboratories) in 20 μl containing 1 mM deoxyribonucleotide triphosphates, 4 mM MgCl2, 10 mM Tris, pH 8.3, 50 mM KC1, 0.001% gelatin and 0.2 μg oligo-dT primer. Samples were diluted to 100 μl with buffer containing 0.2 mM deoxyribonucleotide triphosphates, 2 mM MgCl2, 10 mM Tris, pH 8.3, 50 mM KC1 and 0.001% gelatin. […]

Experiment [3] relates to MDA-6 (WAF1/CIP1/SDI1) protein. Put plainly: Immunoprecipitation of MDA-6 (WAF1/CIP1/SDI1) protein in HL-60 cells. The settings on record: TPA, DMSO (1%) or RA (1 μM), 12, 24, 48 and 72 h tested. On the procedure:
Immunoprecipitation analyses were performed as described previously (Duigou et al., 1991; Su et al. 1993). Logarithmically growing HL-60 cells were either untreated or treated for 12, 24, 48 or 72 h with TPA ([…]), RA (1 μM) or DMSO (1%) in 10-cm plates. Cultures were starved of methionine for 1 h at 37° C. in methionine-free medium, cells were concentrated by pelleting and labeled for 4 h at 37° C. in 1 ml of the same medium with 100 μCi of [^35S] (NEN; Express ^35S). After labeling, the cells were washed twice with ice-cold phosphate-buffered saline and lysed for 1 h on ice by the addition of RIPC (20 mM Tris-base, pH 7.5, 500 mM NaCl, 0.05% Nonidet P-40, 100 μg/ml phenylmethylsulfonyl fluoride and 0.02% sodium azide). The lysate was clarified by centrifugation in an Eppendorf microfuge at 10,000×g for 10 min at 4° C. Samples containing 4×10^6 counts were incubated with 2 μg of WAF1/CIP1 (C-19) (Santa Cruz Biotechnology) (or MDA-6 peptide-derived) rabbit polyclonal IgG or actin monoclonal antibody (Oncogene Sciences) with rocking at 4° C. for 24 h. The next day, 30 μl (packed volume) of protein G-agarose (Oncogene Sciences) was added to each tube, and incubation with rocking at 4° C. continued for another hour. The protein G pellets were then washed five times with 1 ml of ice-cold RIPC:phosphate-buffered saline (1:1, v/v). Thirty μl of sodium dodecyl sulfate-polyacrylamide gel electrophoresis buffer were added to the pellets, and the sample was heated at 87° C. for 3 min. The samples were loaded onto an 10% polyacrylamide gel and run overnight at 40 V. The gel contained Rainbow protein markers (Amersham) for sizing. Gels were fixed with 10% acetic acid plus 10% methanol for 30 min, incubated in DMSO for 30 min, incubated with 10% 2,5-diphenyloxazole in DMSO for 30 min, washed three times with cold water (10 min each), dried and exposed to film.

The test system of a further experiment is HL-60 cells. The experiment is described as follows: OKM1 reactivity (immunofluorescence). Conditions: TPA 3 nM, RA 1 μM or Vit D3 400 nM, percent OKM1 positive cells. Here is the method: as §1
(§2) Cell counts were determined by hemocytometer chamber counting. Immunofluorescence tests for reactivity with the OKM1 antibody (Ortho Pharmaceutical Corp., Raritan, N.J.) were performed as previously described (Murao et al., 1983).

The next experiment concerns HL-525 cells. The experiment is described as follows: OKM1 reactivity (immunofluorescence). Conditions: TPA 3 nM, RA 1 μM or Vit D3 400 nM, percent OKM1 positive cells. On the procedure: as §1, §2

Where two headings read alike, the source gives them in different places.

Turning to `C[C@@H]1C[C@@H]([C@H](O)CC2CC(=O)NC(=O)C2)C(=O)[C@@H](C)C1` [CHX, cycloheximide], the “mda-6 expression in the presence of cycloheximide” value with mda-6 (WAF1/CIP1/SDI1) [1] was “induction of mda-6”; in the experiment with mda-6 (WAF1/CIP1/SDI1) [2] (CHX 10 μg/ml 1, 3, 6 or 10 h, without or with TPA 3 nM) it was “induces mda-6 expression”.
Take `C[S+](C)[O-]` [DMSO, dimethyl sulfoxide]: the “time of treatment at which MDA-6 protein is detected” value in experiment [3] is 48 h.
`C=C1/C(=C\C=C2/CCC[C@]3(C)[C@@H]([C@H](C)CCCC(C)(C)O)CC[C@@H]23)C[C@@H](O)C[C@@H]1O` [Vit D3, 1,25-(OH)2D3]: in the experiment with HL-60 cells, the “OKM1 reactivity, Days of induction 4” value was found to be 88% and the “OKM1 reactivity, Days of induction 6” value worked out at 95%. Also, in the experiment on HL-525 cells, the “OKM1 reactivity, Days of induction 4” value was determined as 84% and the “OKM1 reactivity, Days of induction 6” value is reported as 80%. Moreover, the “time of treatment at which mda-6 expression is induced” value with mda-6 (WAF1/CIP1/SDI1) [2] (TPA 3 nM, Vit D3 400 nM, RA 1 μM, 1 to 12 h test period) is at most 2 h.

The values are drawn from patent US7507792B2, “MDA-7 proteins and methods of use thereof” (The Trustees of Columbia University In The City of New York, priority 1993, dated 2009).
